Columns and labels:
Hygroscopicity (DVS) = assay type: physicochemical; settings: for hygroscopicity class (in words) / hygroscopic weight gain: at 80% humidity; for hygroscopic weight gain: tartrate; for hygroscopicity (in words): DVS experiments on the Active Pharmaceutical Ingredients
[1] = Equilibrium solubility of crystal forms under simulated in vivo conditions; assay type: physicochemical; settings: simulated in vivo conditions (pH=2.0, 4.6, 6.8)
[2] = Conversion experiments between the crystal forms; assay type: physicochemical; settings: conversion between Crystal Form A and Form B
physchem = settings: for solubility: 25 °C, thermodynamic from solid
From the text: Perform scale-up experiments on the above six salts to determine solubilities of various salts in different pH buffers and deionized water, and compare with the free base.

[3] = Preliminary stability tests (high temperature, high humidity, illumination); assay type: physicochemical; settings: high humidity, and illumination, versus free base and other salt forms
From the text: However, unlike phosphates and the like, the above increase in solubility is not accompanied by a significant increase in hygroscopicity. […] The above and other advantages will be favorable for overcoming various challenges faced by the development of pharmaceutical products containing selective CDK 9 kinase inhibitors of Formula I.

For `CNc1nc(C)c(-c2nc(Nc3cccc(S(N)(=O)=O)c3)ncc2F)s1.O=C(O)C(O)C(O)C(=O)O` [Form A, 3-(5-fluoro-4-(4-methyl-2-(methylamino)thiazol-5-yl)pyrimidin-2-ylamino)-benzenesulfonamide tartrate], the “hygroscopicity class (in words)” value (Hygroscopicity (DVS)) was “non-hygroscopic”, the hygroscopic weight gain (Hygroscopicity (DVS)) was 0.22% and the “equilibrium solubility (in words)” value [1] was “greater than that of Form B”. For the same compound, the “crystal form stability (in words)” value [2] was “more stable crystal form”.

In the case of `CNc1nc(C)c(-c2nc(Nc3cccc(S(N)(=O)=O)c3)ncc2F)s1` [LS007, 3-(5-fluoro-4-(4-methyl-2-(methylamino)thiazol-5-yl)pyrimidin-2-ylamino)-benzenesulfonamide], the “hygroscopicity (in words)” value (Hygroscopicity (DVS)) is reported as “very low hygroscopicity”.

`CNc1nc(C)c(-c2nc(Nc3cccc(S(N)(=O)=O)c3)ncc2F)s1.O=C(O)C(O)C(O)C(=O)O` [Tartrate, 3-(5-fluoro-4-(4-methyl-2-(methylamino)thiazol-5-yl)pyrimidin-2-ylamino)-benzenesulfonamide tartrate] showed a solubility (physchem; pH 2, aqueous buffer) of 4300 µg/mL, a solubility (physchem; pH 4.5, aqueous buffer) of 7.5 µg/mL and a solubility (physchem; pH 6.8, aqueous buffer) of 3.7 µg/mL. The solubility (physchem; water) was 418 µg/mL, the “solubility compared to the raw materials (in words)” value (physchem; pH 2.0 buffer and deionized water, HPLC) was “significantly increased” and the “hygroscopicity (in words)” value (Hygroscopicity (DVS)) was “lowest hygroscopicity”. The “stability (in words)” value [3] was “better stability”.

In the case of `CNc1nc(C)c(-c2nc(Nc3cccc(S(N)(=O)=O)c3)ncc2F)s1.O=C(O)C(O)C(O)C(=O)O` [Form B, 3-(5-fluoro-4-(4-methyl-2-(methylamino)thiazol-5-yl)pyrimidin-2-ylamino)-benzenesulfonamide tartrate], the “hygroscopicity class (in words)” value (Hygroscopicity (DVS)) is reported as “non-hygroscopic” and the hygroscopic weight gain (Hygroscopicity (DVS)) is reported as 0.11%.

In the case of `CNc1nc(C)c(-c2nc(Nc3cccc(S(N)(=O)=O)c3)ncc2F)s1.O=P(O)(O)O` [Phosphate], the “hygroscopicity (in words)” value (Hygroscopicity (DVS)) is reported as “highest hygroscopicity” and the water absorbed (Hygroscopicity (DVS); DVS, 60% RH) is reported as 11.71%.

— patent publication US11566024B2 (CHANGZHOU QIANHONG BIOPHARMA CO., LTD, priority 2018, dated 2023)
